Results reported in patent US8603986B2, “Compounds and methods for modulating cadherin-mediated processes” (McGill University, priority 2005, dated 2013).
Marks after values point to notes of the source that are not given here.

Assays:
[1] = target: T1, E-cadherin/Fc chimeric protein (Homo sapiens, UniProt P12830); test: Cadherin/Fc binding assay: phage ELISA on E-cadherin/Fc; set-up: key: +: Phage bound to the chimeric protein; −: No phage bound to the chimeric protein
T1 construct: extracellular domain of human E-cadherin (Asp155-Ile707); purchased R&D Systems, Minneapolis, Minn
T1 sequence (P12830 155-707): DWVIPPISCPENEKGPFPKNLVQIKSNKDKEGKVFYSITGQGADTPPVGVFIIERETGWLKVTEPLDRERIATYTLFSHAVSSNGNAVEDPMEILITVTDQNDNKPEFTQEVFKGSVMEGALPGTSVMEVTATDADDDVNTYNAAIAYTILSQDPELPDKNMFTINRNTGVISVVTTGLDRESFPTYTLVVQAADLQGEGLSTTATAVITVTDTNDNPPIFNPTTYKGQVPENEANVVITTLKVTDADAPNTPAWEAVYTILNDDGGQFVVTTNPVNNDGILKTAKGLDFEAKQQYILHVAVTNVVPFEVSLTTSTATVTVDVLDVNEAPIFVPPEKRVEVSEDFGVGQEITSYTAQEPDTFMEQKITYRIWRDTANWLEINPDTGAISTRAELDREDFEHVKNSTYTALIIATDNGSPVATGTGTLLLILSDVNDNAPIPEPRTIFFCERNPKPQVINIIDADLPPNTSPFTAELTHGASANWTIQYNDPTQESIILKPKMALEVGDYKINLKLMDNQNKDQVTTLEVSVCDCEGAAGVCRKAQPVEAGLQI
Text: (§1) The peptide libraries, Ph.D.-C7C™ and Ph.D.-12™ (New England BioLabs) were used in this study. These libraries are composed of 2×10^9 randomized 7 amino acid sequences flanked by cysteine residues and linear 12 amino acid sequences, respectively. The amino acid sequences are incorporated into the minor coat protein, pIII, of M13 phage. The N-cadherin/Fc chimeric protein (R&D Systems, Minneapolis, Minn.) consists of the extracellular domain of human N-cadherin (Asp160-Ala724) and the Fc region of human IgG1. The E-cadherin/Fc chimeric protein (R&D Systems, Minneapolis, Minn.) consists of the extracellular domain of human E-cadherin (Asp155-Ile707) and the Fc region of human IgG1.
(§2) The binding of each clone to the cadherin/Fc chimeric proteins was confirmed by ELISA. Wells of ProBind microtiter plates (Falcon) were coated with either N-cadherin/Fc or E-cadherin/Fc chimeric protein (100 ng/well) or human IgG1 (which contains the Fc fragment) (100 ng/well). After blocking the nonspecific sites with TBS containing 3% BSA and 1.2 mM CaCl2 for 1 h at 37° C., phage clones (10^9 pfu) diluted in TBST containing 3% BSA and 1.2 mM CaCl2 (100 μl/well). Non-coated wells were also used to exclude any phage that bound to the plastic surface. After 1 h incubation at room temperature, wells were washed 3 times with TBST containing 3% BSA and 1.2 mM CaCl2. M13 phage without any insert were used to control the non-specific binding of the phage itself to the target. Monoclonal anti-M13 antibody conjugated to horseradish peroxidase (Amersham Biosciences, Piscataway, N.J.) was diluted in TBST containing 3% BSA and 1.2 mM CaCl2 (1:2,000) and added to each well (100 μl/well). After 1 h incubation at room temperature, wells were washed three times with TBST containing 3% BSA and 1.2 mM CaCl2 and once with TBS containing 1.2 mM CaCl2. Horseradish peroxidase substrate, TMB (Sigma), was added to each well (100 μl/well and after color development the reaction was stopped by addition of 100 μl 0.5 M sulphuric acid to each well. The intensity of the color was measured at 450 nm.
(§3) The phage clones shown to bind to the N-cadherin/Fc chimeric protein by ELISA were also evaluated for their ability to bind to E-cadherin/Fc and VE-cadherin/Fc chimeric proteins. The phage clones shown to bind to the E-cadherin/Fc chimeric protein by ELISA were also evaluated for their ability to bind to N-cadherin/Fc and VE-cadherin/Fc chimeric proteins. The same ELISA protocol described in the previous section was used to perform this evaluation with the exception that the wells were coated with either 100 ng N-cadherin/Fc, E-cadherin/Fc or VE-cadherin/Fc chimeric protein (R&D Systems, Minneapolis, Minn.).

[2] = target: T2, N-cadherin/Fc chimeric protein (Homo sapiens, UniProt P19022); test: Cadherin/Fc binding assay: phage ELISA on N-cadherin/Fc; set-up: key to ELISA Phage Binding to N-Cadherin/Fc Chimeric Protein 1.2 mM calcium / ELISA Phage Binding to N-Cadherin/Fc Chimeric Protein 2 mM EDTA / ELISA Phage Binding to Cadherin/Fc Chimeric Proteins N−: +: Phage bound to the chimeric protein; −: No phage bound to the chimeric protein
T2 construct: extracellular domain of human N-cadherin (Asp160-Ala724); purchased R&D Systems, Minneapolis, Minn
T2 sequence (P19022 160-724): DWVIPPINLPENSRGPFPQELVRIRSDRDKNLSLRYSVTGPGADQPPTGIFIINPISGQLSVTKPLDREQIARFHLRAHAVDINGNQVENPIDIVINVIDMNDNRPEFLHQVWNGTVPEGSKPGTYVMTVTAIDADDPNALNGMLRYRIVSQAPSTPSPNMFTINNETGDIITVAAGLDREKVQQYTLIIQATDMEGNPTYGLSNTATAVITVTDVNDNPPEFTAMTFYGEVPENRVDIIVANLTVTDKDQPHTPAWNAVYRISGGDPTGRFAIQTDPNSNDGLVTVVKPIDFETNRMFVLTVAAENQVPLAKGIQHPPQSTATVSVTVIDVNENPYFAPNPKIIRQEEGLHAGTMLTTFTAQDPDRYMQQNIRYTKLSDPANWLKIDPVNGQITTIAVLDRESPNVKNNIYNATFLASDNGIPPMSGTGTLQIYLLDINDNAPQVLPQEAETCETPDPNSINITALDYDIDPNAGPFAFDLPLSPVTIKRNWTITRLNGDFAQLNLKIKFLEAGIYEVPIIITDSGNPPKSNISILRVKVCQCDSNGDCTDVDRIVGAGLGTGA
Text: as §1
The binding of each clone to the cadherin/Fc chimeric proteins was confirmed by ELISA. Wells of ProBind microtiter plates (Falcon) were coated with either N-cadherin/Fc or E-cadherin/Fc chimeric protein (100 ng/well) or human IgG1 (which contains the Fc fragment) (100 ng/well). […] Non-coated wells were also used to exclude any phage that bound to the plastic surface. […] M13 phage without any insert were used to control the non-specific binding of the phage itself to the target. […] […] Horseradish peroxidase substrate, TMB (Sigma), was added to each well (100 μl/well and after color development the reaction was stopped by addition of 100 μl 0.5 M sulphuric acid to each well. The intensity of the color was measured at 450 nm.
as §3

[3] = target: T3, VE-cadherin/Fc chimeric protein (Homo sapiens, UniProt P33151); test: Cadherin specificity: phage ELISA on VE-cadherin/Fc; assay type: binding; set-up: key: +: Phage bound to the chimeric protein; −: No phage bound to the chimeric protein
T3 construct: purchased R&D Systems, Minneapolis, Minn
Procedure: as §2, §3

[4] = Table 7, Ph.D.-12 clones selected on E-cadherin/Fc
[5] = Table 4, Ph.D.-12 library clones
[6] = Table 2, Ph.D.-C7C library clones
[7] = Table 6, Ph.D.-C7C clones selected on E-cadherin/Fc

T3 sequence (P33151 with tags, fused parts or gaps limits assumed, species assumed): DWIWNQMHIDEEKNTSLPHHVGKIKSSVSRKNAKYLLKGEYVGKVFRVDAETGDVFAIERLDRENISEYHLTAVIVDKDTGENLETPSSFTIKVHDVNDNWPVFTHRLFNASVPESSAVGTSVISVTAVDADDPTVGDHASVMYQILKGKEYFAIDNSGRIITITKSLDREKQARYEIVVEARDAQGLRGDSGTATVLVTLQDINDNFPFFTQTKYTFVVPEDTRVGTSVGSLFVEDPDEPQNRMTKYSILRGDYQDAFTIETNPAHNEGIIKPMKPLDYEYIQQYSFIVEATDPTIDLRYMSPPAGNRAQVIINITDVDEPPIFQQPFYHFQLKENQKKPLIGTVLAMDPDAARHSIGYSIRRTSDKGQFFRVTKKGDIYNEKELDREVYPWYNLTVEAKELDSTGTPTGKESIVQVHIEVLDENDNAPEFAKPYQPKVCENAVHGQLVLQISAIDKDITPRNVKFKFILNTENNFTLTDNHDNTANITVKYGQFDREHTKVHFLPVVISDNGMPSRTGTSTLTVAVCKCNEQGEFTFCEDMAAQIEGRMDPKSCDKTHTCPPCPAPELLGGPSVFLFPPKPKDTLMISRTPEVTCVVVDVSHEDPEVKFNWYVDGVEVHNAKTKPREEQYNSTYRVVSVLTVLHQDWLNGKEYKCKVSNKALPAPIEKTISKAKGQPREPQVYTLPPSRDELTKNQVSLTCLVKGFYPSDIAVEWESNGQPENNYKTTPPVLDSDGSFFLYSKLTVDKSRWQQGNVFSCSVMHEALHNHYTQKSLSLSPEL

ELISA Phage Binding to Cadherin/Fc Chimeric Proteins E− [1, 4] | ELISA Phage Binding to Cadherin/Fc Chimeric Proteins N− [2, 4] | ELISA Phage Binding to Cadherin/Fc Chimeric Proteins VE− [3, 4] | ELISA Phage Binding to Cadherin/Fc Chimeric Proteins E− [1, 6] | ELISA Phage Binding to N-Cadherin/Fc Chimeric Protein 1.2 mM calcium [2, 6] | ELISA Phage Binding to N-Cadherin/Fc Chimeric Protein 2 mM EDTA [2, 6] | ELISA Phage Binding to Cadherin/Fc Chimeric Proteins VE− [3, 6] | Sequence | also measured
+ | + | − |  |  |  |  | AWTWSLPTLPQS [Ec 12-a5] | 
 |  |  |  |  |  |  | SWTLYTPSGQSK [Nc 12-04] | ELISA Phage Binding to Cadherin/Fc Chimeric Proteins E− [1, 5]: −; ELISA Phage Binding to N-Cadherin/Fc Chimeric Protein 1.2 mM calcium [2, 5]: +; ELISA Phage Binding to N-Cadherin/Fc Chimeric Protein 2 mM EDTA [2, 5]: −; ELISA Phage Binding to Cadherin/Fc Chimeric Proteins VE− [3, 5]: −
 |  |  |  |  |  |  | SWLAVWPATGAS [Nc 12-a10] | ELISA Phage Binding to Cadherin/Fc Chimeric Proteins E− [1, 5]: +; ELISA Phage Binding to N-Cadherin/Fc Chimeric Protein 1.2 mM calcium [2, 5]: +; ELISA Phage Binding to N-Cadherin/Fc Chimeric Protein 2 mM EDTA [2, 5]: +; ELISA Phage Binding to Cadherin/Fc Chimeric Proteins VE− [3, 5]: −
+ | + | − |  |  |  |  | EWTYTFPTAHSI [Ec 12-a18] | 
+ | + | − |  |  |  |  | EWFWSWPGYSNT [Ec 12-a13] | 
 |  |  | − | + | − | − | WELRVSSPC [Nc a7] | 
 |  |  | − | + | − | − | WHTSWSDTY [Nc 19] | 
 |  |  |  |  |  |  | AWQVHYSYVASS [Nc 12-a7] | ELISA Phage Binding to Cadherin/Fc Chimeric Proteins E− [1, 5]: +; ELISA Phage Binding to N-Cadherin/Fc Chimeric Protein 1.2 mM calcium [2, 5]: +; ELISA Phage Binding to N-Cadherin/Fc Chimeric Protein 2 mM EDTA [2, 5]: +; ELISA Phage Binding to Cadherin/Fc Chimeric Proteins VE− [3, 5]: −
+ | + | − |  |  |  |  | EWTFQWNSYPAD [Ec 12-10] | 
 |  |  | − | + | − | − | WLQPYFPSY [Nc a5] | 
 |  |  | − | +* | −** | − | WLQPYFPSY [Nc 1] | phage binding to N-cadherin/Fc chimeric protein by ELISA [2]: positive ELISA signal
 |  |  |  |  |  |  | WQMVLCPAC [Ec 4] | ELISA Phage Binding to Cadherin/Fc Chimeric Proteins E− [1, 7]: +; ELISA Phage Binding to Cadherin/Fc Chimeric Proteins N− [2, 7]: +; ELISA Phage Binding to Cadherin/Fc Chimeric Proteins VE− [3, 7]: −
 |  |  | − | + | − | − | WEVCLTEKC [Nc 15] | 
